Laboratory results as given in US10351856B2, “Ribonucleic acid aptamer having inhibitory effect on non-small cell lung cancer and pharmaceutical composition comprising same” (BIOPHARMAGEN CORP., FANGZHOU SUZHOU, priority 2016, dated 2019).
Values joined by “and” are separate entries in the source; they are usually repeats but may differ in a detail not shown here. Equal entries are not always repeated. “Also recorded” adds a separate entry of the source.

B1: SCAP: nucleic acid obtained by randomly shuffling the sequence of RA16, SEQ ID NO: 2, control (nucleic acid)
chain: GGGAGAGAACAAUGACCUGUUGCAAGCGCGUCGGUAAUUCGCGCACAUGGCAGGCUUCUGAGUGCAUUGCAUCACGUCAGUAG
modifications: listed as RNA, chemistry not given here
B2: RA16: ribonucleic acid aptamer of SEQ ID NO: 1, prepared by in vitro transcription, binds human non-small cell lung cancer (nucleic acid)
chain: GGGAGAGAACAAUGACCUGCGGUGCCAAGCCGUCGGGUUAUGUUGAUCUCCACAAGGACGAGUGCAUUGCAUCACGUCAGUAG
modifications: listed as RNA, chemistry not fully specified

Columns and labels:
[1] = system: human non-small cell lung cancer H460 transplanted tumor; experiment: RA16-EPI adduct or epirubicin on tumor growth in H460 subcutaneous tumor-bearing mice; assay type: in vivo; settings: 3 times, day 16
Description: In order to clarify the effect of the nucleic acid aptamer RA16-EPI adduct on the growth of human non-small cell lung cancer solid tumors, the inventors used model mice that were injected with human non-small cell lung cancer H460 cells and constructed with a subcutaneous tumor as experimental subjects (initial mean tumor volume was 200-300 mm^3). They were randomly divided into 6 groups, each of which had 5 tumor-bearing mice. One group served as a negative control group (0.1 ml of normal saline was injected intravenously on the 0th, 7th, and 14th days respectively); and the other 5 groups served as treatment groups (different doses of drugs were given every week, and the administration manners and doses are shown in Table 2.). Every 2 days, the tumor diameter of the tumor-bearing mice was measured, the tumor volume was calculated, and the tumor growth curves were drawn (FIG. 5). On the 16th day, the tumor was extracted, the tumor was weighed, and the tumor growth inhibition rate was calculated.

[2] = system: human non-small cell lung cancer cell line H460; experiment: CCK-8 relative viability / proliferation of H460 cells; assay type: cell-based; settings: for effect on proliferation of H460 cells: CCK-8, 48 h, 300 nM or 0-400 nM
Description: (§1) In order to clarify the effect of the nucleic acid aptamer RA16 on the proliferation of human non-small cell lung cancer cell lines, the inventors used the CCK-8 method (CCK-8 kit purchased from Dojindo Molecular Technologies, Inc.) to detect the relative viability of human non-small cell lung cancer cell line H460 (ATCC) and other tumor cells (human cervical cancer Hela cells) (the initial cell concentration was 2×10^4 cells/ml) after 48 h of treatment by 300 nM RA16. The same treatment was performed as the control with the same concentration of SCAP obtained by randomly shuffling the RA16.
(§2) Further, CCK-8 assay was used to detect the growth conditions of human non-small cell lung cancer H460 cells and human cervical cancer Hela cells (the concentration of test cells was about 2×10^4/ml) after 48 hours of treatment with different concentrations of nucleic acid aptamer RA16 and SCAP (concentration 0, 5, 10, 50, 100, 150, 200, 300, 400 nM respectively) with randomly srambled RA16, and after three independent experiments, the results are shown in FIG. 2A-B.
In order to clarify the effect of the nucleic acid aptamer RA16-EPI adduct on the proliferation of human non-small cell lung cancer cell lines, the inventors used the CCK-8 method to detect the relative viability of human non-small cell lung cancer cell line H460 and other tumor cell lines (human cervical cancer Hela cells) (initial cell concentration was 2×10^4 cells/ml) after 48 h of treatment by 375 nM RA16-EPI.

[3] = system: human cervical cancer Hela cells; experiment: CCK-8 relative viability / proliferation of Hela cells; assay type: cell-based; settings: CCK-8, 48 h, 300 nM or 0-400 nM
Description: as §1
as §2, with “2A-B. […]” for “2A-B.”

[4] = system: human non-small cell lung cancer H460 transplanted tumor; experiment: RA16 on tumor growth in H460 subcutaneous tumor-bearing mice; assay type: in vivo; settings: 2 nmol i.v. on days 0, 3, 5, 7, 9; tumor weighed on day 16
Description: In order to clarify the effect of the nucleic acid aptamer RA16 on the growth of human non-small cell lung cancer solid tumors, the inventors used model mice that were injected with human non-small cell lung cancer H460 cells and constructed with a subcutaneous tumor as experimental subjects (initial mean tumor volume was 100 mm^3 or so). They were randomly divided into two groups, each of which had 6 tumor-bearing mice. One group served as a negative control group (0.1 ml of normal saline was injected intravenously on the 0th, 3rd, 5th, 7th, and 9th days respectively); and the other was an RA16 treatment group (2 nmol of RA16 was injected intravenously the 0th, 3rd, 5th, 7th, and 9th days respectively). Every other day, the tumor diameter of the tumor-bearing mice was measured, the tumor volume was calculated, and the tumor growth curves were drawn (FIG. 4). On the 16th day, the tumor was extracted, the tumor was weighed, and the tumor growth inhibition rate was calculated.

[5] = high dose, EPI 1.5 mg/kg/week i.v.
[6] = low dose, EPI 0.5 mg/kg/week i.v.

Molecule | Inhibition Rate (%) of tumor growth [1, 5] [%] | Tumor Weight [1, 5] [g] | Inhibition Rate (%) of tumor growth ([1]; high dose, EPI 1.5 mg/kg/week i.v., listed as EPI) [%] | Inhibition Rate (%) of tumor growth [1, 6] [%] | Tumor Weight [1, 6] [g] | effect on proliferation of H460 cells [2] | effect on human cervical cancer Hela cells [3] | Inhibition Rate (%) of tumor growth [4] | IC50 ([2]; CCK-8, 48 hours, 0-400 nM, read-out: IC50 of inhibition of proliferation of H460 cells) [nM]
COc1cccc2c1C(=O)c1c(O)c3c(c(O)c1C2=O)C[C@@](O)(C(=O)CO)C[C@@H]3O[C@H]1C[C@H](N)[C@@H](O)[C@H](C)O1 [Epirubicin] | 47.13 | 1.97 ± 0.38 | 47.13 | 28.76 | 2.65 ± 0.21 |  |  |  | 
B1 |  |  |  |  |  | little effect |  |  | 
B2 |  |  |  |  |  | obviously inhibit the proliferation | no inhibitory effect; also recorded: no obvious effects; also recorded: no significant effect | 54.3% and 54.26% | 117
